Measurements: patent US20230278972A1, “SUBSTITUTED HALOALKYL SULFONANILIDE HERBICIDES” (FMC Corporation, priority 2020, published 2023)

Key:
Format in all cases: in vivo
[1] = test system: kochia (Bassia scoparia); experiment: Test A1 preemergence, kochia
Outline: (§1)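 Plants grown in pots of loam/sand mix; preemergence = soil-directed spray on seeded pots, postemergence = spray at 1–2 leaves, height 2–10 cm; test chemicals formulated in non-phytotoxic solvent with surfactant.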

[2] = test system: Ryegrass, Italian (Italian ryegrass, Lolium multiflorum); experiment: Test A1 preemergence, Ryegrass, Italian
Outline: as §1

[3] = test system: kochia (Bassia scoparia); experiment: Test A1 postemergence, kochia; conditions: Postemergence
Outline: (§2)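 Both timings started from seed in a loam-sand blend. Preemergence pots got a directed soil application immediately; postemergence pots were sprayed when seedlings had one or two leaves and stood 2–10 cm. Each compound was prepared in a non-phytotoxic solvent plus surfactant.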

[4] = test system: Oat, Wild (wild oat, Avena fatua); experiment: Test A1 postemergence, Oat, Wild; conditions: Postemergence
Outline: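 Plants were grown in a loam soil/sand blend, with test chemicals formulated in a non-phytotoxic solvent mixture containing surfactant. Preemergence treatment (corn) was a directed soil spray at planting. Postemergence treatment was applied to plants 2 to 10 cm tall at the one- to two-leaf stage.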

[5] = test system: Ryegrass, Italian (Italian ryegrass, Lolium multiflorum); experiment: Test A1 postemergence, Ryegrass, Italian; conditions: Postemergence
Outline: as §2

[6] = test system: horseweed (Erigeron canadensis); experiment: Test A1 postemergence, horseweed; conditions: Postemergence
Outline: as §2

[7] = 31 g ai/ha, 0 to 100 scale (0 no effect, 100 complete control)
[8] = 125 g ai/ha, 0 to 100 scale, 0 no effect, 100 complete control
[9] = 31 g ai/ha, 0 to 100 scale (0 no effect, 100 complete control), 10 days

Row | Compound | Plant response rating, Kochia [1, 7] | Plant response rating, Kochia [1, 8] | Plant response rating, Ryegrass, Italian [2, 7] | Plant response rating, Ryegrass, Italian [2, 8] | Plant response rating, Kochia [3, 9] | Plant response rating, Kochia ([3]; 125 g ai/ha, 0 to 100 scale) | Plant response rating, Oat, Wild [4, 9] | Plant response rating, Oat, Wild ([4]; 125 g ai/ha, 0 to 100 scale) | Plant response rating, Ryegrass, Italian [5, 9] | Plant response rating, Ryegrass, Italian ([5]; 125 g ai/ha, 0 to 100 scale) | Plant response rating, Horseweed [6, 9] | Plant response rating, Horseweed ([6]; 125 g ai/ha, 0 to 100 scale)
1 | Cc1cc(C)c(C2=NOC3CCCCCC23)cc1NS(=O)(=O)C(F)(F)F (stereo not drawn) [Compound 292] | 30 | 80 | 60 | 100 | 30 | 50 | 10 | 30 | 0 | 30 | 0 | 30
2 | CCOC(=O)N(c1cc(C(=O)N2CCC(F)(F)CC2)c(C)cc1C)S(=O)(=O)C(F)(F)F [Compound 351] | 20 | 90 | 40 | 90 | 10 | 30 | 0 | 10 | 20 | 50 | 100 | 90
3 | Cc1c(C(=O)N2CCCCC2)cc(N(COC(=O)C(C)(C)C)S(=O)(=O)C(F)(F)F)c(C)c1C [Compound 329, [[(Trifluoromethyl)sulfonyl][2,3,4-trimethyl-5-(1-piperidinylcarbonyl)phenyl]amino]methyl 2,2-dimethylpropanoate] | 0 | 30 | 0 | 0 | 10 | 20 | 0 | 0 | 0 | 0 | 20 | 90
4 | Cc1cc(C)c(N(COC(=O)OC(C)(C)C)S(=O)(=O)C(F)(F)F)cc1C1=NOC2CCCC12 (stereo not drawn) [Compound 316] | 0 | 50 | 30 | 50 | 30 | 70 | 0 | 10 | 0 | 30 | 30 | 40
5 | Cc1c(C2=NO[C@@H]3CCC[C@H]23)cc(N(COC(=O)C(C)(C)C)S(=O)(=O)C(F)(F)F)c(C)c1C [Compound 336, [[(Trifluoromethyl)sulfonyl][2,3,4-trimethyl-5-[(3aR,6aR)-3a,5,6,6a-tetrahydro-4H-cyclopent[d]isoxazol-3-yl]phenyl]amino]methyl 2,2-dimethylpropanoate] | 0 | 0 | 30 | 30 | 70 | 80 | 0 | 0 | 0 | 0 | 0 | 60
6 | CCOC(=O)N(c1cc(C(=O)N2CCC(C)CC2)c(C)cc1C)S(=O)(=O)C(F)(F)F [Compound 354] | 0 | 20 | 20 | 70 | 40 | 50 | 0 | 10 | 0 | 40 | 80 | 90
7 | Cc1c(NS(=O)(=O)C(F)(F)F)cc(C2=NOC3CCCC23)c(C)c1C (stereo not drawn) [Compound 335] | 20 | 60 | 0 | 60 | 10 | 60 | 0 | 0 | 0 | 30 | 40 | 70
8 | Cc1cc(C)c(C2=NOC3COCC23)cc1NS(=O)(=O)C(F)(F)F (stereo not drawn) [Compound 297] | 80 | 90 | 0 | 90 | 0 | 60 | 20 | 30 | 0 | 60 | 50 | 80
9 | Cc1cc(Br)c(C2=NOC3CCCC23)cc1NS(=O)(=O)C(F)(F)F (stereo not drawn) [Compound 302] | 30 | 80 | 50 | 90 | 10 | 50 | 0 | 0 | 0 | 0 | 10 | 40
10 | Cc1cc(C)c(N(COC(=O)C(C)(C)C)S(=O)(=O)C(F)(F)F)cc1C(=O)N1CCOCC1 [Compound 362] | 50 | 90 | 30 | 70 | 50 | 80 | 0 | 10 | 30 | 90 | 90 | 90
